Experimental data reported in patent US20110160146A1, “Conjungation of Small Molecules to Octaarginine Transporters for Overcoming Multi-Drug Resistance” (National Institute of Health (NIH), priority 2008, published 2011).

Key:
UCI-107 luc = test: cells; conditions: Homo sapiens, read-out: IC50 concentration
Experimental: (§1) After 72 hours, the cytotoxicity of the relevant compound was determined by an MTT based assay.
(§2) Cell Lines; SKOV-3 cells were obtained from ATCC; UCI-101 and UCI-107 cell lines were obtained from Drs. P. DiSaia and A. Manetta, University of California; MCF-7 and MCF-7-Pgp were obtained from Dr. D. Piwnica-Worms, Washington University; OVCA429, OVCA433 and the taxane resistant derivatives of these cells (OVCA429T, OVCA429TxT, OVCA433T and OVCA433TxT) were obtained from Dr. B. Sikic, Stanford University. All cells were grown in DMEM with 10% FBS.
(§3) Cell Cytotoxicity Assay. The cytotoxicity of relevant compounds was determined by IC50 assay. Cells were seeded overnight into 96-well plates, and then incubated with a serial dilution of the indicated compound for 20 min, before washing twice with fresh media, and incubation at 37° C. for 72 hr in drug-free media. The IC50 values were determined as the concentration of compound required to inhibit the viability of the cell layer by 50% relative to untreated, and cell-free control wells (100 and 0% viability respectively) determined from semi-logarithmic dose response curves. […] Bioluminescence was determined using an IVIS 50 system (Caliper Life Sciences, Alameda, Calif.). Each compound and dilution was tested in triplicate per experiment, with each experiment reproduced three times.

SKOV-3 = test: cells; conditions: Homo sapiens, SK-OV-3, read-out: IC50 concentration
Experimental: as §1, §2, §3

OVCA 429 = test: cells; conditions: Homo sapiens, OVCA429, read-out: IC50 concentration
Experimental: as §1, §2, §3

OVCA 433 = test: cells; conditions: Homo sapiens, OVCA433, read-out: IC50 concentration
Experimental: as §1, §2, §3

UCI-101 luc = test: cells; conditions: Homo sapiens, UCI101, read-out: IC50 concentration
Experimental: as §1, §2, §3

MCF-7 = test: cells; conditions: Homo sapiens, MCF7, read-out: IC50 concentration
Experimental: as §1, §2, §3

[1] = system: UCI-101 tumor cells expressing luciferase; test: Mouse tumor model, UCI-101 intraperitoneal xenograft; type: in vivo, mice; conditions: 10 mg/kg dose
Source text: (a) 1×10^7 UCI-101 tumor cells expressing luciferase were implanted into the peritoneal cavity of athymic nu/nu mice 7 days prior to treatment. […] For the purpose of these experiments TFA^− counteranions on both conjugates were exchanged to C. Subsequent tumor burden was followed by bioluminescence imaging (n=8/group). […] Tumor burden was followed by bioluminescence imaging. […] (n=8/group).
Mouse Tumor Models: Tumor xenografts were created by intraperitoneal injection of female athymic CD1 nu/nu or SCID mice with 1×10^7 cells. Versions of UCI-101, OVCA429 or OVCA429T cells were used expressing Firefly luciferase. […] Mice were then treated with three intraperitoneal injections (5 days apart) of 5 or 10 mg/kg taxol or equimolar dose equivalents of the taxol derivatives, or PBS as a control. For the purpose of these experiments TFA^− counteranions on both conjugates were exchanged to C. Subsequent tumor burden was followed by BLI. Once tumor burden reached 1×10^8 photons/sec/mouse the mice were euthanized.
Comparisons of survival (Kaplan-Meier) curves were made by the Wilcoxon-Rank test. Statistical significance was determined as p<0.05.

OVCA 433TxT = test: cells; conditions: Homo sapiens, read-out: IC50 concentration
Experimental: as §1
(§4) Within the panel of human cancer cells, there were three sets of related sensitive and resistant cell lines, the latter based wholly or in part on Pgp-mediated efflux. These resistant lines were either created through stable transfection of MCF-7 cells with Pgp (MCF-7-Pgp), or by selection through exposure of OVCA429 and OVCA433 cells to taxol (OVCA429T and OVCA433T)^19 or taxotere (OVCA429TxT and OVCA433TxT), creating a complex MDR phenotype including Pgp upregulation.
as §2, §3

OVCA 429TxT = test: cells; conditions: Homo sapiens, read-out: IC50 concentration
Experimental: as §1, §4, §2, §3

OVCA 429T = test: cells; conditions: Homo sapiens, read-out: IC50 concentration
Experimental: as §1, §4, §2, §3

OVCA 433T = test: cells; conditions: Homo sapiens, read-out: IC50 concentration
Experimental: as §1, §4, §2, §3

MCF-7-pgp = test: Cell cytotoxicity assay (IC50), MCF-7-pgp; conditions: Homo sapiens, read-out: IC50 concentration
Experimental: as §1, §4, §2, §3

CC(=O)O[C@H]1C(=O)[C@@]2(C)[C@H]([C@H](OC(=O)c3ccccc3)[C@]3(O)C[C@H](OC(=O)[C@H](O)[C@@H](NC(=O)c4ccccc4)c4ccccc4)C(C)=C1C3(C)C)[C@]1(OC(C)=O)CO[C@@H]1C[C@@H]2O [compound 1, Taxol, reference compound]
IC50 (UCI-107 luc): 320 nM
IC50 (SKOV-3): 29 nM
IC50 (OVCA 429): 147 nM
IC50 (OVCA 433): 294 nM
IC50 (UCI-101 luc): 246 nM
IC50 (MCF-7): 171 nM
complete responses [1]: 12.5%
IC50 (OVCA 433TxT): 12400 nM
IC50 (OVCA 429TxT): 2520 nM
IC50 (OVCA 429T): 15800 nM
IC50 (OVCA 433T): 6180 nM
IC50 (MCF-7-pgp): 867 nM
